Assay results as given in ChEMBL document CHEMBL1153901, “Synthesis and antibacterial activity evaluation of metronidazole-triazole conjugates” (Bioorg Med Chem Lett, 2009).
In brackets after ≈: the same amount, converted by molar mass. Activity calls are given as the source filed them. The calls are words filed in the database; no cut-off is given here.

system: Candida albicans; assay: Antifungal activity against Candida albicans; format: functional, organism-based

Compound	Activity
Cc1ncc([N+](=O)[O-])n1CCn1cc(-c2cccnc2)nn1	inactive
Cc1ncc([N+](=O)[O-])n1CCn1cc(-c2ccccn2)nn1	inactive
Cc1ncc([N+](=O)[O-])n1CCn1cc(COc2ccc(Cl)cc2)nn1	inactive
Cc1ccc(OCc2cn(CCn3c([N+](=O)[O-])cnc3C)nn2)cc1	inactive
Cc1cccc(OCc2cn(CCn3c([N+](=O)[O-])cnc3C)nn2)c1	inactive
Cc1ncc([N+](=O)[O-])n1CCn1cc(C2(O)CCCCC2)nn1	inactive
Cc1ncc([N+](=O)[O-])n1CCn1cc(CO)nn1	inactive
Cc1ncc([N+](=O)[O-])n1CCn1cc(-c2ccccc2)nn1	inactive
Cc1ccccc1OCc1cn(CCn2c([N+](=O)[O-])cnc2C)nn1	inactive
Cc1ncc([N+](=O)[O-])n1CCn1cc(COc2ccc(C=O)cc2)nn1	inactive

system: Nakaseomyces glabratus; assay: Antifungal activity against Candida glabrata; format: functional, organism-based

Compound	Activity
Cc1ncc([N+](=O)[O-])n1CCn1cc(-c2cccnc2)nn1	inactive
Cc1ncc([N+](=O)[O-])n1CCn1cc(-c2ccccn2)nn1	inactive
Cc1ncc([N+](=O)[O-])n1CCn1cc(COc2ccc(Cl)cc2)nn1	inactive
Cc1ccc(OCc2cn(CCn3c([N+](=O)[O-])cnc3C)nn2)cc1	inactive
Cc1cccc(OCc2cn(CCn3c([N+](=O)[O-])cnc3C)nn2)c1	inactive
Cc1ncc([N+](=O)[O-])n1CCn1cc(C2(O)CCCCC2)nn1	inactive
Cc1ncc([N+](=O)[O-])n1CCn1cc(CO)nn1	inactive
Cc1ncc([N+](=O)[O-])n1CCn1cc(-c2ccccc2)nn1	inactive
Cc1ccccc1OCc1cn(CCn2c([N+](=O)[O-])cnc2C)nn1	inactive
Cc1ncc([N+](=O)[O-])n1CCn1cc(COc2ccc(C=O)cc2)nn1	inactive

system: Pseudomonas aeruginosa; assay: Antibacterial activity against Pseudomonas aeruginosa after 24 hrs by […] microdilution method; format: functional, organism-based

Compound	IC50
Cc1ncc([N+](=O)[O-])n1CCn1cc(-c2ccccn2)nn1	0.13 µg/mL (≈ 0.434 µM)
Cc1ncc([N+](=O)[O-])n1CCn1cc(COc2ccccc2Cl)nn1	> 500 µg/mL
Cc1ncc([N+](=O)[O-])n1CCn1cc(COc2ccc(Cl)cc2)nn1	0.02 µg/mL (≈ 0.0551 µM)
CCC(=O)OCc1cn(CCn2c([N+](=O)[O-])cnc2C)nn1	> 500 µg/mL
Cc1ncc([N+](=O)[O-])n1CCn1cc(C2(O)CCCCC2)nn1	0.18 µg/mL (≈ 0.562 µM)
Cc1ncc([N+](=O)[O-])n1CCn1cc(COC2CCCCO2)nn1 (stereo not drawn)	> 500 µg/mL
Cc1ncc([N+](=O)[O-])n1CCn1cc(CO)nn1	0.18 µg/mL (≈ 0.714 µM)
Cc1ncc([N+](=O)[O-])n1CCn1cc(-c2ccccc2)nn1	0.13 µg/mL (≈ 0.436 µM)
Cc1ncc([N+](=O)[O-])n1CCn1cc(COc2ccc(C=O)cc2)nn1	0.07 µg/mL (≈ 0.196 µM)
Cc1ncc([N+](=O)[O-])n1CCn1cc(CCO)nn1	> 500 µg/mL
CC(=O)c1ccc(OCc2cn(CCn3c([N+](=O)[O-])cnc3C)nn2)cc1	> 500 µg/mL

Continued, values first:

IC50	Compound
> 500 µg/mL	Cc1ncc([N+](=O)[O-])n1CCn1cc(-c2cccnc2)nn1
> 500 µg/mL	Cc1ncc([N+](=O)[O-])n1CCn1cc(COc2ccccc2[N+](=O)[O-])nn1
0.06 µg/mL (≈ 0.135 µM)	CN(C)[C@@H]1C(O)=C(C(N)=O)C(=O)[C@@]2(O)C(O)=C3C(=O)c4c(O)cccc4[C@@](C)(O)[C@H]3C[C@@H]12 [TETRACYCLINE]
> 500 µg/mL	COCc1cn(CCn2c([N+](=O)[O-])cnc2C)nn1
0.03 µg/mL (≈ 0.0876 µM)	Cc1ccc(OCc2cn(CCn3c([N+](=O)[O-])cnc3C)nn2)cc1
0.068 µg/mL (≈ 0.199 µM)	Cc1cccc(OCc2cn(CCn3c([N+](=O)[O-])cnc3C)nn2)c1
0.13 µg/mL (≈ 0.396 µM)	Cc1ncc([N+](=O)[O-])n1CCn1cc(COc2ccccc2)nn1
> 500 µg/mL	Cc1ccccc1OCc1cn(CCn2c([N+](=O)[O-])cnc2C)nn1
> 500 µg/mL	Cc1ncc([N+](=O)[O-])n1CCn1cc(COc2ccc([N+](=O)[O-])cc2)nn1
> 500 µg/mL	Cc1ncc([N+](=O)[O-])n1CCn1cc(COc2ccccc2C=O)nn1
> 500 µg/mL	Cc1ncc([N+](=O)[O-])n1CCn1cc(CBr)nn1

system: Staphylococcus epidermidis; assay: Antibacterial activity against Staphylococcus epidermidis after 24 hrs by […] microdilution method; format: functional, organism-based

Compound	IC50
Cc1ncc([N+](=O)[O-])n1CCn1cc(-c2ccccn2)nn1	> 500 µg/mL
Cc1ncc([N+](=O)[O-])n1CCn1cc(COc2ccccc2Cl)nn1	> 500 µg/mL
Cc1ncc([N+](=O)[O-])n1CCn1cc(COc2ccc(Cl)cc2)nn1	> 500 µg/mL
CCC(=O)OCc1cn(CCn2c([N+](=O)[O-])cnc2C)nn1	> 500 µg/mL
Cc1ncc([N+](=O)[O-])n1CCn1cc(C2(O)CCCCC2)nn1	> 500 µg/mL
Cc1ncc([N+](=O)[O-])n1CCn1cc(COC2CCCCO2)nn1 (stereo not drawn)	> 500 µg/mL
Cc1ncc([N+](=O)[O-])n1CCn1cc(CO)nn1	0.35 µg/mL (≈ 1.39 µM)
Cc1ncc([N+](=O)[O-])n1CCn1cc(-c2ccccc2)nn1	> 500 µg/mL
Cc1ncc([N+](=O)[O-])n1CCn1cc(COc2ccc(C=O)cc2)nn1	> 500 µg/mL
Cc1ncc([N+](=O)[O-])n1CCn1cc(CCO)nn1	> 500 µg/mL
CC(=O)c1ccc(OCc2cn(CCn3c([N+](=O)[O-])cnc3C)nn2)cc1	> 500 µg/mL

Continued, values first:

IC50	Compound
> 500 µg/mL	Cc1ncc([N+](=O)[O-])n1CCn1cc(-c2cccnc2)nn1
> 500 µg/mL	Cc1ncc([N+](=O)[O-])n1CCn1cc(COc2ccccc2[N+](=O)[O-])nn1
0.08 µg/mL (≈ 0.18 µM)	CN(C)[C@@H]1C(O)=C(C(N)=O)C(=O)[C@@]2(O)C(O)=C3C(=O)c4c(O)cccc4[C@@](C)(O)[C@H]3C[C@@H]12 [TETRACYCLINE]
> 500 µg/mL	COCc1cn(CCn2c([N+](=O)[O-])cnc2C)nn1
> 500 µg/mL	Cc1ccc(OCc2cn(CCn3c([N+](=O)[O-])cnc3C)nn2)cc1
> 500 µg/mL	Cc1cccc(OCc2cn(CCn3c([N+](=O)[O-])cnc3C)nn2)c1
> 500 µg/mL	Cc1ncc([N+](=O)[O-])n1CCn1cc(COc2ccccc2)nn1
> 500 µg/mL	Cc1ccccc1OCc1cn(CCn2c([N+](=O)[O-])cnc2C)nn1
> 500 µg/mL	Cc1ncc([N+](=O)[O-])n1CCn1cc(COc2ccc([N+](=O)[O-])cc2)nn1
> 500 µg/mL	Cc1ncc([N+](=O)[O-])n1CCn1cc(COc2ccccc2C=O)nn1
> 500 µg/mL	Cc1ncc([N+](=O)[O-])n1CCn1cc(CBr)nn1

system: Staphylococcus aureus; assay: Antibacterial activity against Staphylococcus aureus after 24 hrs by […] microdilution method; format: functional, organism-based

Compound	IC50
Cc1ncc([N+](=O)[O-])n1CCn1cc(-c2ccccn2)nn1	0.13 µg/mL (≈ 0.434 µM)
Cc1ncc([N+](=O)[O-])n1CCn1cc(COc2ccccc2Cl)nn1	> 500 µg/mL
Cc1ncc([N+](=O)[O-])n1CCn1cc(COc2ccc(Cl)cc2)nn1	0.13 µg/mL (≈ 0.358 µM)
CCC(=O)OCc1cn(CCn2c([N+](=O)[O-])cnc2C)nn1	> 500 µg/mL
Cc1ncc([N+](=O)[O-])n1CCn1cc(C2(O)CCCCC2)nn1	> 500 µg/mL
Cc1ncc([N+](=O)[O-])n1CCn1cc(COC2CCCCO2)nn1 (stereo not drawn)	> 500 µg/mL
Cc1ncc([N+](=O)[O-])n1CCn1cc(CO)nn1	0.35 µg/mL (≈ 1.39 µM)
Cc1ncc([N+](=O)[O-])n1CCn1cc(-c2ccccc2)nn1	> 500 µg/mL
Cc1ncc([N+](=O)[O-])n1CCn1cc(COc2ccc(C=O)cc2)nn1	> 500 µg/mL
Cc1ncc([N+](=O)[O-])n1CCn1cc(CCO)nn1	> 500 µg/mL
CC(=O)c1ccc(OCc2cn(CCn3c([N+](=O)[O-])cnc3C)nn2)cc1	> 500 µg/mL

More lines, now with the values ahead:

IC50	Compound
0.31 µg/mL (≈ 1.04 µM)	Cc1ncc([N+](=O)[O-])n1CCn1cc(-c2cccnc2)nn1
> 500 µg/mL	Cc1ncc([N+](=O)[O-])n1CCn1cc(COc2ccccc2[N+](=O)[O-])nn1
0.12 µg/mL (≈ 0.27 µM)	CN(C)[C@@H]1C(O)=C(C(N)=O)C(=O)[C@@]2(O)C(O)=C3C(=O)c4c(O)cccc4[C@@](C)(O)[C@H]3C[C@@H]12 [TETRACYCLINE]
> 500 µg/mL	COCc1cn(CCn2c([N+](=O)[O-])cnc2C)nn1
0.13 µg/mL (≈ 0.38 µM)	Cc1ccc(OCc2cn(CCn3c([N+](=O)[O-])cnc3C)nn2)cc1
0.26 µg/mL (≈ 0.759 µM)	Cc1cccc(OCc2cn(CCn3c([N+](=O)[O-])cnc3C)nn2)c1
> 500 µg/mL	Cc1ncc([N+](=O)[O-])n1CCn1cc(COc2ccccc2)nn1
> 500 µg/mL	Cc1ccccc1OCc1cn(CCn2c([N+](=O)[O-])cnc2C)nn1
> 500 µg/mL	Cc1ncc([N+](=O)[O-])n1CCn1cc(COc2ccc([N+](=O)[O-])cc2)nn1
> 500 µg/mL	Cc1ncc([N+](=O)[O-])n1CCn1cc(COc2ccccc2C=O)nn1
> 500 µg/mL	Cc1ncc([N+](=O)[O-])n1CCn1cc(CBr)nn1

system: Geotrichum candidum; assay: Antifungal activity against Geotrichum candidum; format: functional, organism-based

Compound	Activity
Cc1ncc([N+](=O)[O-])n1CCn1cc(-c2cccnc2)nn1	inactive
Cc1ncc([N+](=O)[O-])n1CCn1cc(-c2ccccn2)nn1	inactive
Cc1ncc([N+](=O)[O-])n1CCn1cc(COc2ccc(Cl)cc2)nn1	inactive
Cc1ccc(OCc2cn(CCn3c([N+](=O)[O-])cnc3C)nn2)cc1	inactive
Cc1cccc(OCc2cn(CCn3c([N+](=O)[O-])cnc3C)nn2)c1	inactive
Cc1ncc([N+](=O)[O-])n1CCn1cc(C2(O)CCCCC2)nn1	inactive
Cc1ncc([N+](=O)[O-])n1CCn1cc(CO)nn1	inactive
Cc1ncc([N+](=O)[O-])n1CCn1cc(-c2ccccc2)nn1	inactive
Cc1ccccc1OCc1cn(CCn2c([N+](=O)[O-])cnc2C)nn1	inactive
Cc1ncc([N+](=O)[O-])n1CCn1cc(COc2ccc(C=O)cc2)nn1	inactive

system: Escherichia coli; assay: Antibacterial activity against Escherichia coli after 24 hrs by NCCLS microdilution method; format: functional, organism-based

Compound	IC50
Cc1ncc([N+](=O)[O-])n1CCn1cc(-c2ccccn2)nn1	0.12 µg/mL (≈ 0.401 µM)
Cc1ncc([N+](=O)[O-])n1CCn1cc(COc2ccccc2Cl)nn1	> 500 µg/mL
Cc1ncc([N+](=O)[O-])n1CCn1cc(COc2ccc(Cl)cc2)nn1	0.003 µg/mL (≈ 0.00827 µM)
CCC(=O)OCc1cn(CCn2c([N+](=O)[O-])cnc2C)nn1	> 500 µg/mL
Cc1ncc([N+](=O)[O-])n1CCn1cc(C2(O)CCCCC2)nn1	> 500 µg/mL
Cc1ncc([N+](=O)[O-])n1CCn1cc(COC2CCCCO2)nn1 (stereo not drawn)	> 500 µg/mL
Cc1ncc([N+](=O)[O-])n1CCn1cc(CO)nn1	0.091 µg/mL (≈ 0.361 µM)
Cc1ncc([N+](=O)[O-])n1CCn1cc(-c2ccccc2)nn1	0.13 µg/mL (≈ 0.436 µM)
Cc1ncc([N+](=O)[O-])n1CCn1cc(COc2ccc(C=O)cc2)nn1	0.07 µg/mL (≈ 0.196 µM)
Cc1ncc([N+](=O)[O-])n1CCn1cc(CCO)nn1	> 500 µg/mL
CC(=O)c1ccc(OCc2cn(CCn3c([N+](=O)[O-])cnc3C)nn2)cc1	> 500 µg/mL

Further lines, results first:

IC50	Compound
> 500 µg/mL	Cc1ncc([N+](=O)[O-])n1CCn1cc(-c2cccnc2)nn1
> 500 µg/mL	Cc1ncc([N+](=O)[O-])n1CCn1cc(COc2ccccc2[N+](=O)[O-])nn1
0.09 µg/mL (≈ 0.203 µM)	CN(C)[C@@H]1C(O)=C(C(N)=O)C(=O)[C@@]2(O)C(O)=C3C(=O)c4c(O)cccc4[C@@](C)(O)[C@H]3C[C@@H]12 [TETRACYCLINE]
> 500 µg/mL	COCc1cn(CCn2c([N+](=O)[O-])cnc2C)nn1
0.06 µg/mL (≈ 0.175 µM)	Cc1ccc(OCc2cn(CCn3c([N+](=O)[O-])cnc3C)nn2)cc1
0.067 µg/mL (≈ 0.196 µM)	Cc1cccc(OCc2cn(CCn3c([N+](=O)[O-])cnc3C)nn2)c1
0.67 µg/mL (≈ 2.04 µM)	Cc1ncc([N+](=O)[O-])n1CCn1cc(COc2ccccc2)nn1
0.028 µg/mL (≈ 0.0818 µM)	Cc1ccccc1OCc1cn(CCn2c([N+](=O)[O-])cnc2C)nn1
> 500 µg/mL	Cc1ncc([N+](=O)[O-])n1CCn1cc(COc2ccc([N+](=O)[O-])cc2)nn1
> 500 µg/mL	Cc1ncc([N+](=O)[O-])n1CCn1cc(COc2ccccc2C=O)nn1
> 500 µg/mL	Cc1ncc([N+](=O)[O-])n1CCn1cc(CBr)nn1
